# Article PMC3002932 (PLoS ONE, 2010)
# Like-named read-outs stand apart in the source and are kept apart here.
# Key:
# CXCR4 (HIV-1IIIB) = experiment: p24^gag antigen release assay using PBMCs, CXCR4 strain; format: cell-based; conditions: PBMC based p24^gag antigen release assay
# HIV-1 (BaL) = format: cell-based; conditions: TZM-bl assay; HIV-1 BaL (R5); 24 hr; luciferase activity
# Protocol: The ability of the analogs to inhibit HIV infection was determined with an assay that determines viral infectivity with an LTR-mediated luciferase reporter construct [37]. In brief, TZM-bl reporter cells are HeLa-derived JC53-BL cells that express high levels of CD4, CXCR4, and CCR5. They also contain reporter cassettes for luciferase and β-galactosidase, both driven by the HIV-1 long terminal repeat [38]). 24 hr after these reporter cells were exposed to R5 lab-adapted strains of HIV-1 (BaL) in the presence of peptides, protection was measured as % reduction in luciferase activity (relative light units) compared to cells infected with virus and peptide vehicle alone.
# [1] = format: physicochemical; conditions: for Molecular weight range: 20 mM NaH2PO4, 20°C, 280 nm; for OD280 lost on centrifugation / weight-average molecular weight: 20 mM NaH2PO4
# Protocol: Sedimentation equilibrium was performed at 20°C in a Beckman Optima XL-A analytical ultracentrifuge using absorption optics at 280 nm. Twelve mm path length double sector cells were used for all samples. Samples (OD280 = 0.7 and OD280 = 0.15)) were in 20 mM NaH2PO4. Sedimentation equilibrium profiles were measured at speeds of 3000, 7000, 11000, 24000 and 36000 rpm. The data were fitted with a nonlinear least-squares exponential fit for a single ideal species using the Beckman Origin-based software (Version 3.01 A partial specific volume of 0.739 was estimated from the amino acid composition using 0.9 (the partial specific volume of a leucine residue) for the partial specific volume of cyclohexylalanine and cyclohexylglycine. It was then corrected to 20°C [47].
# [2] = biological target: GRFN-1 (self-association); experiment: SPR self-association of GRFN-1; format: binding; conditions: BIAcore CM5 chip, HBS-EP pH = 7.4, KD±SEM, average from at least 5 independent experiments
# CCR5 (HIV-1BAL) = experiment: p24^gag antigen release assay using PBMCs, CCR5 strain; format: cell-based; conditions: PBMC based p24^gag antigen release assay
# [3] = CD analysis of secondary structure; format: physicochemical; conditions: for disordered / turns / α-helix / β-sheet: Selcon
# Protocol: Peptide was scanned at 20 nm per minute in a 0.01 cm path-length cell at 25°C with a sample interval of 0.2 nm. The peptide concentration was determined by UV absorbance at 280 nm. After baseline correction, spectra were expressed as the Mean Residue Ellipticity [θ]MRE. Quantitative estimates of secondary structural contributions were made with Selcon using the spectral basis set for proteins in the Olis Global Works™ software package (Olis Inc., Bogart, GA).
# [4] = FTIR spectroscopy secondary structure; format: physicochemical
# Protocol: Infrared spectra were recorded at 25°C using a Bruker Vector 22™ FTIR spectrometer with a deuterated triglycine sulfate (DTGS) detector, and averaged over 256 scans at a gain of 4 with a resolution of 2 cm^−1. Peptide samples were initially freeze-dried several times from 10 mM HCl in D2O to remove any interfering counter ions and residual H2O. Solution spectra of peptides were made in deuterated 10 mM phosphate buffer, pD = 7.4 (pD = pH+0.4) and in structure promoting mixed solvent-buffer solutions (trifluoroethanol (TFE) or hexafluoroiso propanol (HFIP). Spectra were acquired using a temperature controlled, demountable liquid cell with calcium fluoride windows fitted with a 50 µm thick spacer (Harrick Scientific, Pleasantville, NY). The relative proportions of α-helix, β-turn, β-sheet, and disordered conformations of solution and multilayer IR spectra were determined by Fourier self-deconvolution for band narrowing and area calculations of component peaks of the FTIR spectra using curve-fitting software supplied by Galactic Software (GRAMS/AI, version 8.0; Thermo Electron Corp., Waltham, MA). The frequency limits for the different structures were: α-helix (1662–1645 cm^−1), β-sheet (1637–1613 and 1710–1682 cm^−1), turns (1682–1662 cm^−1), and disordered or random (1650–1637 cm^−1).
# TZM-bl cells = experiment: MTT reduction in TZM-bl cells; format: cell-based; conditions: Figure 8
# Protocol: Cell viability experiments were carried out using CytoTox-Glo™ Assay (Promega Corp., Madison, WI) and cytotoxicity was analyzed using an MTT-based cell proliferation kit (Boehringer Mannheim, Indianapolis, IN) Both tests were performed according to manufacturer's instructions. MTT is 3-(4,5-dimethylthiazol-2-yl)-2,5-diphenyltetrazolium bromide. Experiments utilizing vaginal epithelial cells (VECs) were carried out as previously described.
# gp41 = gp41 (Human immunodeficiency virus type 1 group M subtype B, UniProt P03375); conditions: SPR, BIAcore CM5 chip, HBS-EP pH = 7.4; KD±SEM, average from at least 5 independent experiments
# Protocol: Surface plasmon resonance (SPR) studies were performed on a BIAcore 3000 system (BiaCore AB, Piscataway, NJ), using BIAcore CM5 sensor chips and HBS-EP running buffer (pH = 7.4) containing 10 mM HEPES, 150 mM NaCl, 3 mM EDTA, and 0.005% polysorbate 20. Proteins/peptides were immobilized on a CM5 sensor chip using the amine coupling method. The chip was activated by mixing 400 mM N-ethyl-N-(3-dimethylaminopropyl)-carbodiimide hydrochloride and 100 mM N-hydroxysuccinimide. Residual reactive groups on the chip surface were blocked using 1.0 M ethanolamine/HCl (pH = 8.5). The flow cell-1 chamber, which served as a control, lacked immobilized protein but was treated with N-ethyl-N-(3-dimethylaminopropyl)-carbodiimide hydrochloride, N-hydroxysuccinimide, and ethanolamine/HCl. Binding signals were corrected for nonspecific binding by subtracting the flow cell-1 signal. To regenerate chip surfaces, bound ligands were removed with 10 mM HCl. Data were analyzed with BIAevaluation 4.1 software (Biacore, Piscataway, NJ).
# [5] = 0.25 mM in 10 mM phosphate buffer pH = 6.5, 25°C
# [6] = 0.5 mM in 10 mM phosphate buffer pH = 6.5, 25°C
# [7] = 0.5 mM in HFIP:10 mM phosphate buffer pH = 6.5 (4∶6, v∶v), 25°C
# [8] = 0.5 mM in TFE:10 mM phosphate buffer pH = 6.5 (4∶6, v∶v), 25°C
# [9] = 0.5 mM in 10 mM phosphate buffer pH = 7.5, 25°C
# [10] = 0.5 mM in HFIP:10 mM phosphate buffer pH = 7.5 (4∶6, v∶v), 25°C
# [11] = 0.5 mM in TFE:10 mM phosphate buffer pH = 7.5 (4∶6, v∶v), 25°C
# gp41, sequence (P03375 512-856): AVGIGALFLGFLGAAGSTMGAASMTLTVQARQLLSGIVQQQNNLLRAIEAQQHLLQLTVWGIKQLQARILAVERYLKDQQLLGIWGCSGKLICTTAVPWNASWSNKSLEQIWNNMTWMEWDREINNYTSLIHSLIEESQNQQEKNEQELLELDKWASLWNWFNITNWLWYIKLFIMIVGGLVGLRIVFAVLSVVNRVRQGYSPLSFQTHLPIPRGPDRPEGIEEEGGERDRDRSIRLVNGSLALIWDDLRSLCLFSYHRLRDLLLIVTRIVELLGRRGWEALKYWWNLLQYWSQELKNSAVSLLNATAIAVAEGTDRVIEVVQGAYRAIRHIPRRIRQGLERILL
substance,measurement,setting,value
Cha-SC-Chg-R-Chg-RSGSY-Cha-DN-Chg-R-Chg-(D)Cys-CONH2 (disulfide) [GRFN-1],antiviral activity (in words),CXCR4 (HIV-1IIIB),maintained their antiviral activity
same,EC50,HIV-1 (BaL),191 ± 11 nM
same,Molecular weight range,[1]; 3K rpm (limited data),∼150000 Da
same,Molecular weight range,[1]; 7K rpm,68500–84700 Da
same,Molecular weight range,[1]; 11K rpm,8950–38100 Da
same,Molecular weight range,[1]; 24K rpm,2541–6200 Da
same,Molecular weight range,[1]; 36K rpm,2245–2940 Da
same,OD280 lost on centrifugation,[1]; 3000 rpm,less than 5%
same,weight-average molecular weight,"[1]; 7000 rpm, remaining heterogeneous material",about 69000
same,OD280 lost on centrifugation,[1]; 7000 rpm,Approximately two-thirds
same,weight-average molecular weight,"[1]; early scans, after 16 hours, 3000 rpm","about 150,000"
same,turbidity,[1]; initially dissolved in 20 mM NaH2PO4,slightly turbid solution
same,aggregation state (in words),"[1]; sedimentation equilibrium, diluted salt",high molecular weight soluble aggregates with some monomer present
same,KD (self-association),[2],500 ± 130 nM
same,antiviral activity (in words),CCR5 (HIV-1BAL),maintained their antiviral activity
same,disordered,[3]; [5],30.0%
same,turns,[3]; [5],21.0%
same,α-helix,[3]; [5],25.0%
same,β-sheet,[3]; [5],24.0%
same,disordered,[3]; [6],31.0%
same,turns,[3]; [6],21.0%
same,α-helix,[3]; [6],13.0%
same,β-sheet,[3]; [6],35.0%
same,disordered,[3]; [7],24.0%
same,turns,[3]; [7],16.0%
same,α-helix,[3]; [7],52.0%
same,β-sheet,[3]; [7],8.0%
same,disordered,[3]; [8],30.0%
same,turns,[3]; [8],23.0%
same,α-helix,[3]; [8],19.0%
same,β-sheet,[3]; [8],28.0%
same,secondary structure (in words),"[3]; 10 mM phosphate buffer, pH = 6.5, 250 µM","almost equal proportions of α-helix, β-sheet, turn and disordered conformations"
same,secondary structure (in words),"[3]; 10 mM phosphate buffer, pH = 6.5, 500 µM vs 250 µM",β-sheet structure increases at the expense of α-helix
same,secondary structure (in words),[3]; HFIP:buffer,dominant helical conformation
same,secondary structure (in words),[3]; TFE:buffer,"mix of α-helix, β-sheet, turns"
same,concentration dependence of conformation,"[3]; TFE:buffer and HFIP:buffer, 50 to 500 µM (data not shown)",not concentration dependent
same,disordered,[4]; [9],27.6%
same,turns,[4]; [9],22.4%
same,α-helix,[4]; [9],12.4%
same,β-sheet,[4]; [9],37.6%
same,disordered,[4]; [10],25.8%
same,turns,[4]; [10],17.2%
same,α-helix,[4]; [10],48.6%
same,β-sheet,[4]; [10],8.4%
same,disordered,[4]; [11],24.8%
same,turns,[4]; [11],20.3%
same,α-helix,[4]; [11],23.2%
same,β-sheet,[4]; [11],31.7%
same,secondary structure (in words),[4]; TFE:buffer and HFIP:buffer,shift from β-sheet to more helical conformations
same,secondary structure (in words),[4]; aqueous buffer,dominant β-sheet structure
same,inhibition of cellular dehydrogenase activity (MTT reduction),TZM-bl cells,appeared to inhibit cellular dehydrogenase activity (as gauged by MTT reduction) in a dose dependent manner
same,Kd,gp41,3000 ± 1310 nM
